Assay results taken from PMC4176650 (BioMed Research International, 2014).
“Also recorded” adds a separate entry of the source. Like-named read-outs stand apart in the source and are kept apart here.

How the values were obtained:
[1] = molecular target: Bacillus pasteurii urease (Sporosarcina pasteurii, UniProt P41020); assay: Urease assay and inhibition kinetics, Bacillus pasteurii urease; format: biochemical; set-up: Vmaxapp: unit not given here; conditions: for Kmapp: Km without inhibitor 5.1 mM; for Vmaxapp: Vmax without inhibitor 160
Description: (§1) Reaction mixtures comprising 25 μL of enzyme (Jack bean and Bacillus pasteurii ureases) solution and 55 μL of buffers containing urea (2–24 mM for jack bean and Bacillus pasteurii ureases) were incubated with 5 μL of test compounds at 30°C for 4.15 min in 96-well plates. The increasing absorbance at 560 nm was measured after 10 min, using a microplate reader (Molecular Devices, USA). All reactions were performed in triplicate in a final volume of […]. The results (change in absorbance per min.) were processed by using SoftMax Pro software (Molecular Devices, USA). All the assays were performed at pH 6.8 (3 mM sodium phosphate buffer) and 7 μg of phenol red per mL as indicator [10]. Percentage inhibitions were calculated from the formula 100 − (ODtestwell/ODcontrol) × 100. Thiourea was used as the standard inhibitor of urease.
(§2) The concentration of tested compounds that inhibited the hydrolysis of substrates (Jack bean urease and Bacillus pasteurii ureases) by 50% (IC50) was determined by monitoring the effect of various concentrations of the compounds in the assays on the inhibition values. The IC50 (inhibitor conc. that inhibits 50% activity of both enzymes) values were then calculated using the EZ-Fit Enzyme Kinetics program (Perrella Scientific Inc., Amherst, USA).
(§3) Dissociation constant/inhibition constant (K i) were determined by the interpretation of Dixon plot. Lineweaver-Burk plot and their secondary replots using initial velocities obtained over a substrate concentration range between 2.0 and 24 mM urea for J.B. and B.P. ureases, respectively. Nonlinear regression equations were used to determine the values of K I, K m, and V max in the Lineweaver-Burk plot and Dixon plots. The K i values dissociation constant/inhibition constant of J.B. urease-inhibitor or B.P. urease-inhibitor complex into free J.B. urease or B.P. urease and inhibitor was determined graphically by Dixon plot and Lineweaver-Burk plots.

[2] = test system: Lemna aequinoctialis Welv.; assay: Lemna phytotoxicity assay; conditions: seven days
Description: The assay was performed according to the modified protocol of Bremner. […] Sterilized conical flasks were inoculated with compounds with desired concentrations prepared from the stock solution and allowed to evaporate overnight. Each flask was inoculated with 20 mL of sterilized E-medium and ten Lemna aequinoctialis Welv. each containing a rosette of three fronds. Other flasks were supplemented with methanol serving as negative control and reference inhibitor, that is, phosphoroamide (a urease inhibitor already in commercial use) serving as positive control. The treatments were replicated three times and the flasks incubated at 30°C Fisons Fi-Totron 600 H growth cabinet for seven days, 9000 lux light intensity, 56 ± 10 rh (relative humidity), and 12 h day length. Growth of Lemna aequinocitalis in compound containing flask was determined by counting the number of fronds per dose and growth inhibition calculated with reference to negative control.

Jack bean urease = Jack bean urease (Canavalia ensiformis, UniProt P07374); assay: biochemical; conditions: for Type of inhibition / Kmapp / Vmaxapp: Urease (JB); for Kmapp: Km without inhibitor 2.5 mM; for Vmaxapp: Vmax without inhibitor 105
Description: as §1, §2, §3

[3] = Viability of human neutrophils (WST-1); format: cell-based; conditions: isolated human neutrophils; human neutrophils 1 × 10^7 cells/mL; conc. 200 µg/mL
Description: Heparinized fresh venous blood was drawn from healthy volunteers in a local blood bank and the neutrophils were isolated by developed method of McLaughlin et al.. 45 The whole blood was mixed with Ficoll-Paque (Pharmacia Biotech Amersham, Uppsala). After sedimentation the unwanted red blood cells (RBCs) were layered as a buffy coat on the cushion of Ficoll (3.0 mL). It was then centrifuged for 30 min. at 1500 rpm, and supernatant was discarded. Further treated with hypotonic ammonium chloride solution (0.83%) to lyse RBCs. The preparation was then centrifuged and the neutrophils were washed with Modified Hank's Solution (MHS) and resuspended at a concentration of 1 × 10^7 cells/mL.
Isolated human neutrophils (1 × 10^7 cells/mL) were incubated first with test compounds for 30 min., and then after the addition of 0.25 mM WST-1 (Dojindo Laboratories Kumamoto, Japan) in water bath shaker at 37°C [18, 19]. After 3 hrs incubation, change in the absorbance was measured at 450 nm in 96-well plate by using microplate reader Spectra MAX 340 (Molecular Devices, CA, USA). The OD is the mean of the five experimental replicates. The percentage (%) cell viability was calculated by using the following formula: (1) Percentage (%) viability of cells =[…].

[4] = Urease (BP), Dixon plot and secondary Lineweaver-Burk plot, pH 6.8, 30°C, read-out: Ki (µM) ± SEM

Chain of Bacillus pasteurii urease (P41021 whole entry): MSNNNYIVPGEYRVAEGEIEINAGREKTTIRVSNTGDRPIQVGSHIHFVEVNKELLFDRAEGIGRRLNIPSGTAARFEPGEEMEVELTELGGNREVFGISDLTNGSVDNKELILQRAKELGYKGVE
Chain of Bacillus pasteurii urease (P41022 whole entry, further chain): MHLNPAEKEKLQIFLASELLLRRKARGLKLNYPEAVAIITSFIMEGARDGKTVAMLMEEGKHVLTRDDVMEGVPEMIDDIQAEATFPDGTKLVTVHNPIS
Chain of Bacillus pasteurii urease (P41020 whole entry): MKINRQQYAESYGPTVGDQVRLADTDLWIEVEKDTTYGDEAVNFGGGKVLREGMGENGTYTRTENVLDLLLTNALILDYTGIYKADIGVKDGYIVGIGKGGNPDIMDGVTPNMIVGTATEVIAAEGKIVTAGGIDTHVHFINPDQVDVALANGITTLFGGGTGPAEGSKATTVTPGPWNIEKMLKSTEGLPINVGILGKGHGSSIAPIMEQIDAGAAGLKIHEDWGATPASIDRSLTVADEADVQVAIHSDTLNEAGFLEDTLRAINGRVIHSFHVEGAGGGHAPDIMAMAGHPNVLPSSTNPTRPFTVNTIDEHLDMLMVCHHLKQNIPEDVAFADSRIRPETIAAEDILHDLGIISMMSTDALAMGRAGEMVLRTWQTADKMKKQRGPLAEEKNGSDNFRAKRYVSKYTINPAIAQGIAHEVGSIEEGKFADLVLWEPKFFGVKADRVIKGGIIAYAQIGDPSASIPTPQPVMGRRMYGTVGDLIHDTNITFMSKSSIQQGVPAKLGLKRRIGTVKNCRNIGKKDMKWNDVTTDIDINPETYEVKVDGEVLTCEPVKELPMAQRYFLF
Chain of Jack bean urease (P07374 whole entry, looked up): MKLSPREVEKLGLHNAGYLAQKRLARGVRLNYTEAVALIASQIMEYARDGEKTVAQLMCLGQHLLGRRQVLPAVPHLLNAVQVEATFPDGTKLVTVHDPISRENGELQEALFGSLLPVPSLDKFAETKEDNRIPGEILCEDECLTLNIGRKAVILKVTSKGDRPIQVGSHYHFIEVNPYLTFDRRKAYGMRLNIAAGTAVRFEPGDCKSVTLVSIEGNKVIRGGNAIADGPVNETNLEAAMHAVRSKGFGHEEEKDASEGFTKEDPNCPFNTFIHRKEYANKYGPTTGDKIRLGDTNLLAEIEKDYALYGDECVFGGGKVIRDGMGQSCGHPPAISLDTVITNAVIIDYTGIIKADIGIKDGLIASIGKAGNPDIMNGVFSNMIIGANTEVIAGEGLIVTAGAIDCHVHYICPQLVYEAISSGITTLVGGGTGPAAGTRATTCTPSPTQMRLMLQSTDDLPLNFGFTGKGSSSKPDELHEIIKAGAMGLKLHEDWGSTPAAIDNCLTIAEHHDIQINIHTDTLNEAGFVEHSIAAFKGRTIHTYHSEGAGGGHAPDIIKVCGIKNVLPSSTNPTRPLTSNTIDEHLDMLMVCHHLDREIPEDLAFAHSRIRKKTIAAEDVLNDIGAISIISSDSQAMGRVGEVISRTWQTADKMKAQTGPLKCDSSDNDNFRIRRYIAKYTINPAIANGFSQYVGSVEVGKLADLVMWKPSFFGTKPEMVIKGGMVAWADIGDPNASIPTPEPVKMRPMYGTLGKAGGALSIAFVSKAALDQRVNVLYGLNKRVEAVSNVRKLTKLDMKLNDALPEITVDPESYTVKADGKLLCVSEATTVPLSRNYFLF

With `O=c1oc2ccccc2c(O)c1C(c1cc[nH]c1)c1c(O)c2ccccc2oc1=O` [compound 5] the Type of inhibition ([1]; Urease (BP)) was “Uncompetitive”, the Ki [1, 4] was 68.1 ± 0.3 µM and the “Kmapp” value ([1]; Urease (BP)) was 3.9 mM. For the same compound, the Vmaxapp ([1]; Urease (BP)) was 93.7, the “selectivity between B.P. urease and J.B. urease” value ([1]; comparison of potency against both ureases) was “selective for J.B. uraese” and the “Lemna Welv. phytotoxicity (growth inhibition)” value ([2]; conc. of compound 10 μg/mL) was 9.00. The “Lemna Welv. phytotoxicity (growth inhibition)” value ([2]; conc. of compound 100 μg/mL) was 25.00, the “Lemna Welv. phytotoxicity (growth inhibition)” value ([2]; conc. of compound 1000 μg/mL) was 61.4 and the Ki (Jack bean urease) was 53.3 ± 0.4 µM. The Type of inhibition (Jack bean urease) was “Competitive”, the “Kmapp” value (Jack bean urease) was 7.8 mM and the Vmaxapp (Jack bean urease) was 103. The viability at 200 µg/mL [3] was 100 ± 0.5%.

For `CC(c1c(O)c2ccccc2oc1=O)c1c(O)c2ccccc2oc1=O` [compound 3], the Type of inhibition ([1]; Urease (BP)) was “Uncompetitive”, the Ki [1, 4] was 53 ± 0.01 µM and the “Kmapp” value ([1]; Urease (BP)) was 4.0 mM. The Vmaxapp ([1]; Urease (BP)) was 115.3, the “Lemna Welv. phytotoxicity (growth inhibition)” value ([2]; conc. of compound 10 μg/mL) was 6.4 and the “Lemna Welv. phytotoxicity (growth inhibition)” value ([2]; conc. of compound 100 μg/mL) was 22.5. The “Lemna Welv. phytotoxicity (growth inhibition)” value ([2]; conc. of compound 1000 μg/mL) was 54.8, the Ki (Jack bean urease) was 59.4 ± 0.1 µM and the Type of inhibition (Jack bean urease) was “Competitive”. For the same compound, the “Kmapp” value (Jack bean urease) was 8.3 mM, the Vmaxapp (Jack bean urease) was 108 and the viability at 200 µg/mL [3] was 100 ± 1%.

For `COc1cccc(C(c2c(O)c3ccccc3oc2=O)c2c(O)c3ccccc3oc2=O)c1` [compound 1], the Type of inhibition ([1]; Urease (BP)) was “competitively; also recorded: Competitive”, the Ki [1, 4] was 15.5 ± 0.2 µM and the “Kmapp” value ([1]; Urease (BP)) was 11.3 mM. For the same compound, the Vmaxapp ([1]; Urease (BP)) was 159.3, the “Lemna Welv. phytotoxicity (growth inhibition)” value ([2]; conc. of compound 10 μg/mL) was 9.9 and the “Lemna Welv. phytotoxicity (growth inhibition)” value ([2]; conc. of compound 100 μg/mL) was 60.3. The “Lemna Welv. phytotoxicity (growth inhibition)” value ([2]; conc. of compound 1000 μg/mL) was 80, the Ki (Jack bean urease) was 19.3 ± 0.1 µM and the Type of inhibition (Jack bean urease) was “Competitive”. For the same compound, the “Kmapp” value (Jack bean urease) was 5.6 mM, the Vmaxapp (Jack bean urease) was 109 and the viability at 200 µg/mL [3] was 67.5 ± 3.1%.

With `O=c1oc2ccccc2c(O)c1C(c1ccncc1)c1c(O)c2ccccc2oc1=O` [compound 2] the Type of inhibition ([1]; Urease (BP)) was “Noncompetitive”, the Ki [1, 4] was 51.3 ± 0.4 µM and the “Kmapp” value ([1]; Urease (BP)) was 5.2 mM. The Vmaxapp ([1]; Urease (BP)) was 98.0, the “Lemna Welv. phytotoxicity (growth inhibition)” value ([2]; conc. of compound 10 μg/mL) was 6.5 and the “Lemna Welv. phytotoxicity (growth inhibition)” value ([2]; conc. of compound 100 μg/mL) was 33. The “Lemna Welv. phytotoxicity (growth inhibition)” value ([2]; conc. of compound 1000 μg/mL) was 52.7, the Ki (Jack bean urease) was 71 ± 0.3 µM and the Type of inhibition (Jack bean urease) was “Competitive”. The “Kmapp” value (Jack bean urease) was 7.7 mM, the Vmaxapp (Jack bean urease) was 106 and the viability at 200 µg/mL [3] was 85.1 ± 2.5%.

With `C/C=C/C(c1c(O)c2ccccc2oc1=O)c1c(O)c2ccccc2oc1=O` [compound 4] the Type of inhibition ([1]; Urease (BP)) was “Uncompetitive”, the Ki [1, 4] was 48.3 ± 0.01 µM and the “Kmapp” value ([1]; Urease (BP)) was 3.8 mM. For the same compound, the Vmaxapp ([1]; Urease (BP)) was 101.0, the “Lemna Welv. phytotoxicity (growth inhibition)” value ([2]; conc. of compound 10 μg/mL) was 38.23 and the “Lemna Welv. phytotoxicity (growth inhibition)” value ([2]; conc. of compound 100 μg/mL) was 100. The Ki (Jack bean urease) was 65.9 µM, the Type of inhibition (Jack bean urease) was “Competitive” and the “Kmapp” value (Jack bean urease) was 9.1 mM. The Vmaxapp (Jack bean urease) was 105 and the viability at 200 µg/mL [3] was 13.2 ± 4.2%.

For `O=c1oc2ccccc2c(O)c1Cc1c(O)c2ccccc2oc1=O` [compound 7], the Ki [1] was 13.3 ± 0.2 µM, the Type of inhibition ([1]; Urease (BP)) was “competitively; also recorded: Competitive” and the “Kmapp” value ([1]; Urease (BP)) was 9.9 mM. For the same compound, the Vmaxapp ([1]; Urease (BP)) was 162.5, the Ki (Jack bean urease) was 15 ± 0.1 µM and the Type of inhibition (Jack bean urease) was “Competitive”. For the same compound, the “Kmapp” value (Jack bean urease) was 7.6 mM, the Vmaxapp (Jack bean urease) was 102 and the viability at 200 µg/mL [3] was 100 ± 4.3%.

In the case of `CCCCC(c1c(O)c2ccccc2oc1=O)c1c(O)c2ccccc2oc1=O` [compound 6], the Type of inhibition ([1]; Urease (BP)) is reported as “competitively; also recorded: Competitive”, the Ki [1, 4] is reported as 27.5 µM and the “Kmapp” value ([1]; Urease (BP)) is reported as 13.0 mM. The Vmaxapp ([1]; Urease (BP)) was 159.2, the “Lemna Welv. phytotoxicity (growth inhibition)” value ([2]; conc. of compound 10 μg/mL) was 10.60 and the “Lemna Welv. phytotoxicity (growth inhibition)” value ([2]; conc. of compound 100 μg/mL) was 42.50. For the same compound, the “Lemna Welv. phytotoxicity (growth inhibition)” value ([2]; conc. of compound 1000 μg/mL) was 69.6, the Ki (Jack bean urease) was 75 ± 0.1 µM and the Type of inhibition (Jack bean urease) was “Competitive”. The “Kmapp” value (Jack bean urease) was 9.5 mM, the Vmaxapp (Jack bean urease) was 106 and the viability at 200 µg/mL [3] was 45.5 ± 4%.

With `O=c1oc2ccccc2c(O)c1C(/C=C/c1ccccc1)c1c(O)c2ccccc2oc1=O` [compound 8] the Type of inhibition ([1]; Urease (BP)) was “competitively; also recorded: Competitive”, the Ki [1, 4] was 19 ± 0.1 µM and the “Kmapp” value ([1]; Urease (BP)) was 7.7 mM. For the same compound, the Vmaxapp ([1]; Urease (BP)) was 161.7, the “Lemna Welv. phytotoxicity (growth inhibition)” value ([2]; conc. of compound 10 μg/mL) was 13.00 and the “Lemna Welv. phytotoxicity (growth inhibition)” value ([2]; conc. of compound 100 μg/mL) was 22.99. The “Lemna Welv. phytotoxicity (growth inhibition)” value ([2]; conc. of compound 1000 μg/mL) was 70.0, the Ki (Jack bean urease) was 21.5 µM and the Type of inhibition (Jack bean urease) was “Competitive”. The “Kmapp” value (Jack bean urease) was 7.5 mM, the Vmaxapp (Jack bean urease) was 104 and the viability at 200 µg/mL [3] was 100 ± 5.2%.

In the case of `O=c1oc2ccccc2c(O)c1C(c1cccnc1)c1c(O)c2ccccc2oc1=O` [compound 10], the Type of inhibition ([1]; Urease (BP)) is reported as “competitively”, the Ki [1, 4] is reported as 63.6 ± 0.2 µM and the “Kmapp” value ([1]; Urease (BP)) is reported as 10.3 mM. The “Lemna Welv. phytotoxicity (growth inhibition)” value ([2]; conc. of compound 10 μg/mL) was 23.8, the “Lemna Welv. phytotoxicity (growth inhibition)” value ([2]; conc. of compound 100 μg/mL) was 47.6 and the “Lemna Welv. phytotoxicity (growth inhibition)” value ([2]; conc. of compound 1000 μg/mL) was 57.14. For the same compound, the Ki (Jack bean urease) was 68 ± 0.1 µM, the Type of inhibition (Jack bean urease) was “Competitive” and the “Kmapp” value (Jack bean urease) was 10.6 mM. The Vmaxapp (Jack bean urease) was 105 and the viability at 200 µg/mL [3] was 95.4 ± 5.2%.

With `O=c1oc2ccccc2c(O)c1C(c1c(O)c2ccccc2oc1=O)c1c[nH]c2ccccc12` [compound 9] the Type of inhibition ([1]; Urease (BP)) was “Uncompetitive”, the Ki [1, 4] was 59.5 ± 0.2 µM and the “Kmapp” value ([1]; Urease (BP)) was 3.2 mM. The Vmaxapp ([1]; Urease (BP)) was 97.2, the “Lemna Welv. phytotoxicity (growth inhibition)” value ([2]; conc. of compound 10 μg/mL) was 41.66 and the “Lemna Welv. phytotoxicity (growth inhibition)” value ([2]; conc. of compound 100 μg/mL) was 50.00. For the same compound, the Ki (Jack bean urease) was 62.9 ± 0.5 µM, the Type of inhibition (Jack bean urease) was “Competitive” and the “Kmapp” value (Jack bean urease) was 11.6 mM. The Vmaxapp (Jack bean urease) was 108 and the viability at 200 µg/mL [3] was 100 ± 5.2%.
